The structures appear in SMILES notation.

These results are taken from patent US12673028B2, “Therapeutic potential of cellulose-cyclodextrin-curcumin nanocrystals in the treatment of peripheral neuropathies” (UNIVERSITÉ DE LIMOGES, priority 2019, dated 2026).

For data set [1] the following is noted: rats; cited from earlier work.
Data set [2] is described as follows: Bioavailability of curcumin in plasma. The format is in vivo. The note with it: rat, 50 mg/kg.
For another data set, the system named is wild type Schwann cells. Kind of data set: In vitro H2O2-induced oxidative stress in Schwann cells. The following applies: H2O2 0.1 mM. The class given is cell-based, rat. As to the method: Schwann cells (SCs) were isolated from sciatic nerves of wild type (WT) male rats as well as 8-week-old CMT1A rats. SCs were cultured in SC culture medium (described in Caillaud et al., 2018): DMEM D-valine+2 mM glutamine (Gibco)+10% fetal calf serum (Gibco)+1% N2 supplement (Gibco)+20 μg/mL bovine pituitary extract+5 μM forskolin (Gibco)+100 U/mL penicillin/streptomycin (Gibco)+250 μg/mL fungizone (Gibco). SCs were identified using immunofluorescent labeling for S-100 protein.
To induce oxidative stress, SCs were subjected to H2O2 (0.1 mM) treatment for 8 hours. Total ROS and mitochondrial superoxide ions were assessed using the CellROX-Green reagent (Life Technologies GmbH) and the mitochondrial superoxide indicator MitoSOX Red (Life Technologies GmbH), respectively, according to the manufacturer's recommendations.

As to `COc1cc(/C=C/C(=O)CC(=O)/C=C/c2ccc(O)c(OC)c2)ccc1O` [Curcumin, curcumin], in data set [1], the Oral bioavailability entry is “approximately 1%”. For the same compound, in data set [2], the concentration at 0 h came to 0 ng/mL, the concentration at 1 h came to 24.9 ng/mL, the concentration at 2 h was 4.3 ng/mL and the concentration at 8 h was determined as 0 ng/mL. The concentration at 12 h in data set [2] amounted to 0 ng/mL. Besides, the “Mitochondrial membrane potential Δψm (Rho123)” value in the data set with wild type Schwann cells (0.001 μM and 0.01 μM) is “did not reduce the H2O2-induced decrease in Δψm”. In addition, in the data set on wild type Schwann cells (1 μM, 8 h pretreatment), the “H2O2-induced mitochondrial ROS (MitoSOX)” value is recorded as “restored values close to those of the control group” and the “H2O2-induced total ROS (CellROX)” value was “reduced H2O2-induced total ROS”. For the same compound, in the data set with wild type Schwann cells (0.001, 0.01 and 10 μM, 8 h pretreatment), the “H2O2-induced total ROS (CellROX)” value is listed as “had no antioxidant effect”.
